Molecules are shown by their SMILES.

The assay deals with T1, human plasma protein factor Xa (Homo sapiens, UniProt P00742).
T1 construct: measure proteolytic activity of the enzyme (factor Xa) by following cleavage of paranitroanilide substrate; purchased Haematologic Technologies (Essex Junction, Vt.); host or cells: human plasma
T1 sequence (P00742 235-488 limits assumed): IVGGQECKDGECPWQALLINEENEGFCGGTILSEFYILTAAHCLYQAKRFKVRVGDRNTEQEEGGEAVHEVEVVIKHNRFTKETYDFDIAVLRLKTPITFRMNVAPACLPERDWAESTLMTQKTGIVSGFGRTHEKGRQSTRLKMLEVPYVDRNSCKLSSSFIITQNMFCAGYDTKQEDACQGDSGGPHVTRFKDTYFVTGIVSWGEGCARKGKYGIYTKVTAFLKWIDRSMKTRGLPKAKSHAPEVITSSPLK
T1 sequence (P00742 41-179 partner limits assumed): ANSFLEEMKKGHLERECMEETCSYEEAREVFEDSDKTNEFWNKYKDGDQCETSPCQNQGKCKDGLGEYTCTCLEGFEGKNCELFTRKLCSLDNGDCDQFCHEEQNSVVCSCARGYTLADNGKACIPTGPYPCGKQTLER
Description: Factor Xa IC50 determination (cleavage of paranitroanilide substrate S-2765). It counts as biochemical. To be noted: fXa 1 nM, S2765 100 μM, Tris buffered saline pH 7.4, room temperature. As for the experimental part: An in vitro assay for detecting and measuring inhibition activity against Factor Xa is as follows:
The substrate S-2765 (Z-D-Arg-Gly-Arg-pNA.HCl) was obtained from Diapharma (West Chester, Ohio).
The human plasma protein factor Xa was purchased from Haematologic Technologies (Essex Junction, Vt.).
All assays, which are performed in 96-well microtiter plates, measure proteolytic activity of the enzyme (factor Xa) by following cleavage of paranitroanilide substrate. The assay buffer used for proteolytic assays was Tris buffered saline (20 mM Tris, 150 mM NaCl, 5 mM CaCl2, 0.1% Bovine serum albumin (BSA), 5% Dimethly Sulfoxide (DMSO) pH 7.4). In a 96-well microtiter plate, inhibitor was serially diluted to give a range of concentrations from 0.01 nM to 10 μM (final). Duplicate sets of wells were assayed and control wells without inhibitor were included. Enzyme was added to each well, (fXa concentration=1 nM), the plate was shaken for 5 seconds and then incubated for 5 minutes at room temperature. S2765 was added (100 μM final) and the plate was shaken for 5 seconds (final liquid volume in each well was 200 μl). The degree of substrate hydrolysis was measured at 405 nm on a Thermomax plate reader (Molecular Devices, Sunnyvale, Calif.) for 2 minutes. The initial velocities (mOD/min), for each range of inhibitor concentrations, were fitted to a four parameter equation using Softmax data analysis software. The parameter C, derived from the resulting curve-fit, corresponded to the concentration for half maximal inhibition (IC50).
Usually IC50 stands for the midpoint of a concentration-inhibition curve. A lower IC50 goes with higher potency. As to `NS(=O)(=O)c1ccccc1-c1ccc(NC(=O)C(NC(=S)Nc2ccc(Br)cc2)c2ccccc2)cc1` (stereo not drawn) [Example 29, N-[4-(2-aminosulfonylphenyl)phenyl]-2-phenyl-2-[(4-bromophenyl)aminothiocarbonylamino]-acetamide], the IC50 is at most 100 nM.

The compound `O=C(Nc1ccc(N2CCOCC2=O)cc1)C(NC(=S)Nc1ccc(Cl)cc1)c1ccccc1` (stereo not drawn) [Example 25, N-[4-(3-oxo-morpholin-4-yl)phenyl]-2-phenyl-2-(4-chlorophenylaminothiocarbonylamino)-acetamide] had an IC50 of at most 100 nM.

Compound `N=C(c1ccc(NC(=O)C(NC(=S)Nc2ccc(Br)cc2)c2ccccc2)cc1)N1CCC1` (stereo not drawn) [Example 6] returned an IC50 of at most 100 nM.

`N=C(c1ccc(NC(=O)[C@@H](NC(=S)Nc2ccc(Br)cc2)c2ccccc2)cc1)N1CCCCC1` [Example 14, (S) N-[4-(piperidinylimino)phenyl]-2-phenyl-2-(4-bromophenylaminothiocarbonylamino)-acetamide]: the IC50 is 100 to 500 nM.

`N=C(c1ccc(NC(=O)[C@@H](NC(=S)Nc2c(Br)cc(Br)cc2Br)c2ccccc2)cc1)N1CCCC1` [Example 23] had an IC50 of at least 500 nM.

`Cc1cc2cc(NC(=S)NCC(=O)Nc3ccc(C(=N)N(C)C)cc3)ccc2o1` [Example 1, N-[4-(dimethylaminoimino)phenyl]-2-[(2-methylbenzo[b]furan-5-yl)aminothiocarbonylamino]-acetamide]: the IC50 was at least 500 nM.

For `O=C(Nc1ccc(-n2ccccc2=O)cc1F)[C@H](NC(=S)Nc1ccc(Cl)cc1)c1ccccc1` [Example 36, (2R) N-[4-(2-pyridon-1-yl)-2-fluorophenyl]-2-phenyl-2-(4-chlorophenylaminothiocarbonylamino)-acetamide], the IC50 is at most 100 nM.

The compound `N=C(c1ccc(NC(=O)[C@@H](NC(=S)Nc2ccc(Br)cc2)c2ccccc2)cc1)N1CCCC1` [Example 13, (S) N-[4-(pyrrolidinylimino)phenyl]-2-phenyl-2-(4-bromophenylaminothiocarbonylamino)-acetamide] had an IC50 of at most 100 nM.

As to `CN1CCC(C2CCN(C(=O)[C@H](NC(=S)Nc3ccc(Cl)cc3)c3ccccc3)CC2)CC1` [Example 37, (2R) 4-(1-methylpiperidin-4-yl)piperidin-1-yl-2-phenyl-2-(4-chlorophenylaminothiocarbonylamino)-acetamide], the IC50 is at least 500 nM.

The compound `N=C(c1ccc(NC(=O)[C@@H](NC(=S)Nc2ccc(Cl)cc2)c2ccccc2)cc1)N1CCCC1` [Example 16] registered an IC50 of at most 100 nM.

Compound `N=C(c1ccc(NC(=O)[C@@H](NC(=S)Nc2ccc(Br)cc2F)c2ccccc2)cc1)N1CCCC1` [Example 17] returned an IC50 of at least 500 nM.

In the case of `N=C(c1ccc(NC(=O)C(NC(=S)Nc2ccc(Br)cc2)c2ccccc2)cc1)N1CCCC1` (stereo not drawn) [Example 5], the IC50 is at most 100 nM.

As to `N=C(c1ccc(NC(=O)[C@@H](NC(=S)Nc2ccc(Br)cc2)c2ccccc2)cc1)N1CCCCCC1` [Example 15], the IC50 is at most 100 nM.

`N=C(c1ccc(NC(=O)[C@@H](NC(=S)Nc2ccc(Br)cc2C(F)(F)F)c2ccccc2)cc1)N1CCCC1` [Example 22] registered an IC50 of at least 500 nM.

`COCCN(C)C(=N)c1ccc(NC(=O)C(NC(=S)Nc2ccc(Br)cc2)c2ccccc2)cc1` (stereo not drawn) [Example 7, N-{4-[(N-methyl-N-2-methoxyethyl)aminoimino]phenyl}-2-phenyl-2-(4-bromophenylaminothiocarbonylamino)-acetamide] came in with an IC50 of at most 100 nM.

In turn, `CC(C)C(NC(=S)Nc1ccc(Cl)cc1)C(=O)Nc1ccc(C2=NCCN2C)cc1` (stereo not drawn) [Example 24, N-[4-(1-methyl-4,5-dihydro-1H-imidazol-2-yl)phenyl]-2-isopropyl-2-(4-chlorophenylaminothiocarbonylamino]-acetamide] showed an IC50 of at most 100 nM.

With `O=C(Nc1ccc(-n2ccccc2=O)cc1)[C@H](NC(=S)Nc1ccc(Cl)cc1)c1ccccc1` [Example 35, (2R) N-[4-(2-pyridon-1-yl)phenyl]-2-phenyl-2-(4-chlorophenylaminothiocarbonylamino)-acetamide], the IC50 is at most 100 nM.

As to `CN1CCC(N2CCN(C(=O)[C@H](NC(=S)Nc3ccc(Cl)cc3)c3ccccc3)CC2)CC1` [Example 27], the IC50 was at most 100 nM.

Regarding `CN1CCC(N2CCN(C(=O)[C@@H](NC(=S)Nc3ccc(Cl)cc3)c3ccccc3)CC2)CC1` [Example 26], the IC50 is at most 100 nM.

With `N=C(c1ccc(NC(=O)[C@@H](NC(=S)Nc2ccc(Cl)cc2Cl)c2ccccc2)cc1)N1CCCC1` [Example 20], the IC50 is at least 500 nM.

`Cc1cc2cc(NC(=S)N[C@@H](CC(C)C)C(=O)Nc3ccc(C(=N)N(C)C)cc3)ccc2o1` [Example 3] came in with an IC50 of at least 500 nM.

On to `CN1CCN=C1c1ccc(NC(=O)C(NC(=S)Nc2ccc(Br)cc2)c2ccccc2)cc1` (stereo not drawn) [Example 9, N-[4-(1-methyl-4,5-dihydro-1H-imidazol-2-yl)phenyl]-2-phenyl-2-(4-bromophenylaminothiocarbonylamino)-acetamide], for which the IC50 was at most 100 nM.

Consider `CCOC(=O)C1CCN(C(=N)c2ccc(NC(=O)C(NC(=S)Nc3ccc(Br)cc3)c3ccccc3)cc2)CC1` (stereo not drawn) [Example 8], for which the IC50 was at least 500 nM.

For `N=C(c1ccc(NC(=O)[C@@H](NC(=S)Nc2ccc(Br)cc2OC(F)(F)F)c2ccccc2)cc1)N1CCCC1` [Example 18], the IC50 was at least 500 nM.

In the case of `N=C(c1ccc(NC(=O)C(NC(=S)Nc2ccc(F)cc2)c2ccccc2)cc1)N1CCCC1` (stereo not drawn) [Example 10], the half-inhibitory concentration (IC50) was at most 100 nM.

Consider `Cc1cc(Br)ccc1NC(=S)N[C@H](C(=O)Nc1ccc(C(=N)N2CCCC2)cc1)c1ccccc1` [Example 19], for which the IC50 was at least 500 nM.

The compound `NS(=O)(=O)c1ccccc1-c1ccc(NC(=O)C(NC(=S)Nc2ccc(Cl)cc2)c2ccccc2)cc1` (stereo in doubt) [Example 33, (R) N-[4-(2-aminosulfonylphenyl)phenyl]-2-phenyl-2-(4-chlorophenylaminothiocarbonylamino)-acetamide] yielded an IC50 of at most 100 nM.

On to `C#Cc1ccc(NC(=S)NC(C(=O)Nc2ccc(C(=N)N3CCCC3)cc2)c2ccccc2)cc1` (stereo not drawn) [Example 11], for which the IC50 was at most 100 nM.

As to `N=C(c1ccc(NC(=O)[C@@H](NC(=S)Nc2ccc(Br)c(Cl)c2)c2ccccc2)cc1)N1CCCC1` [Example 21, (S) N-[4-(pyrrolidinylimino)phenyl]-2-phenyl-2-(3-chloro-4-bromophenylaminothiocarbonylamino)-acetamide], the IC50 was at least 500 nM.

As for `O=C(Nc1ccc(-n2ccccc2=O)cc1)[C@@H](NC(=S)Nc1ccc(Cl)cc1)c1ccccc1` [Example 34, (2S) N-[4-(2-pyridon-1-yl)phenyl]-2-phenyl-2-(4-chlorophenylaminothiocarbonylamino)-acetamide], the IC50 was at most 100 nM.

`NS(=O)(=O)c1ccccc1-c1ccc(NC(=O)C(NC(=S)Nc2ccc(Cl)cc2)c2ccccc2)cc1` (stereo in doubt) [Example 32, (S) N-[4-(2-aminosulfonylphenyl)phenyl]-2-phenyl-2-(4-chlorophenylaminothiocarbonylamino)-acetamide]: the IC50 was in the range of 100 to 500 nM.

`NS(=O)(=O)c1ccccc1-c1ccc(NC(=O)[C@@H](NC(=S)Nc2ccc(Br)cn2)c2ccccc2)cc1` [Example 30, (S) N-[4-(2-aminosulfonylphenyl)phenyl]-2-phenyl-2-(5-bromopyridin-2-ylaminothiocarbonylamino)-acetamide] had an IC50 of at most 100 nM.

On to `CN(C)C(=N)c1ccc(NC(=O)C(NC(=S)Nc2ccc(Br)cc2)c2ccccc2)cc1` (stereo not drawn) [Example 4, N-[4-(dimethylaminoimino)phenyl]-2-phenyl-2-(4-bromophenylaminothiocarbonylamino)-acetamide], for which the IC50 is at most 100 nM.

In the case of `Cc1cc2cc(NC(=S)NC(C(=O)Nc3ccc(-c4ccccc4S(N)(=O)=O)cc3)c3ccccc3)ccc2o1` (stereo not drawn) [Example 28, N-[4-(2-aminosulfonylphenyl)phenyl]-2-phenyl-2-[(2-methylbenzo[b]furan-5-yl)aminothiocarbonylamino]-acetamide], the IC50 was at most 100 nM.

The compound `Cc1cc2cc(NC(=S)NCC(=O)Nc3ccc(C4=NCCN4C)cc3)ccc2o1` [Example 2, N-[4-(1-methyl-4,5-dihydro-1H-imidazol-2-yl)phenyl]-2-[(2-methylbenzo[b)furan-5-yl)aminothiocarbonylamino]-acetamide] had an IC50 of at least 500 nM.

The compound `NS(=O)(=O)c1ccccc1-c1ccc(NC(=O)[C@H](NC(=S)Nc2ccc(Br)cn2)c2ccccc2)cc1` [Example 31, (R) N-[4-(2-aminosulfonylphenyl)phenyl]-2-phenyl-2-(5-bromopyridin-2-ylaminothiocarbonylamino)-acetamide] showed an IC50 of 100 to 500 nM.

The values are drawn from patent publication US20060160790A1, “Thioureas as factor Xa inhibitors” (Portola Pharmaceuticals, Inc., priority 2004, published 2006).
